This is an account of results in patent publication US3974184A, “Microbial production of certain isoflavones” (Zaidan Hojin Biseibutsu Kagaku Kenkyu Kai, priority 1973, dated 1976).

The test system of one data set is bacteria. The data set can be described thus: Inhibiting action against growth of bacteria. It is filed as cell-based. The following applies: at 100 .nu./cc.
The subject of another data set is tyrosine hydroxylase. Briefly: Inhibition of tyrosine hydroxylase. It is filed as biochemical. The settings on record: at 100 .nu./cc.
The next data set has as its target T1, dopamin-β-hydroxylase (Bos taurus, UniProt P15101).
T1 sequence (P15101 1-610): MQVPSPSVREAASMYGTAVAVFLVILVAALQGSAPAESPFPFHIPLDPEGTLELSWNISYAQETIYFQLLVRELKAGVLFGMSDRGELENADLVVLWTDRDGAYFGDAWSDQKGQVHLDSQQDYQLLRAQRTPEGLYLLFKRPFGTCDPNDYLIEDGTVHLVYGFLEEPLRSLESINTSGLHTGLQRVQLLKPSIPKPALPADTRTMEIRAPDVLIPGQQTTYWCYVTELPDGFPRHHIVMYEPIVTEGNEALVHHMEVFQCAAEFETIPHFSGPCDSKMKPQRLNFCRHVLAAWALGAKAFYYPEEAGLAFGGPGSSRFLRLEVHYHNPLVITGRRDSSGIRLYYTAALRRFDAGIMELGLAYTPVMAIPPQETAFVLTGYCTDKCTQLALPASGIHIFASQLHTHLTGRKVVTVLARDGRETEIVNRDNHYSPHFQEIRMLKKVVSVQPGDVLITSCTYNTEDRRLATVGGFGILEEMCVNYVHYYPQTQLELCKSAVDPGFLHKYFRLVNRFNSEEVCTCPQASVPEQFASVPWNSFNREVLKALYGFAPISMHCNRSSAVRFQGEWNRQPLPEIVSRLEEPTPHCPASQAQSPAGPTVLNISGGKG
The data set can be described thus: Inhibition of dopamin-β-hydroxylase. The following applies: at 100 .nu./cc. It is filed as biochemical.

The subject of data set [1] is spontaneously hypertensive rats. The data set can be described thus: Blood pressure lowering action in spontaneously hypertensive rats. It is filed as in vivo. The following applies: for blood pressure lowering action: abdominal cavity; for blood pressure lowering: in words. From the text:
The inventors also examined the blood pressure lowering action of the compounds (I), (II) and (III) by administering them in the abdominal cavity of spontaneously hypertensive rats.

The subject of the next data set is rats. The data set can be described thus: Toxicity in rats, administration into the abdominal cavity. It is filed as in vivo. The settings on record: 200 mg./kg., abdominal cavity of rats, 25% aqueous dimethyl sulfoxide. From the text:
Now the compounds (I), (II) and (III) will be described with respect to their biological properties.

Another data set deals with T2, DOPA decarboxylase (Homo sapiens, UniProt P20711).
T2 sequence (P20711 1-480): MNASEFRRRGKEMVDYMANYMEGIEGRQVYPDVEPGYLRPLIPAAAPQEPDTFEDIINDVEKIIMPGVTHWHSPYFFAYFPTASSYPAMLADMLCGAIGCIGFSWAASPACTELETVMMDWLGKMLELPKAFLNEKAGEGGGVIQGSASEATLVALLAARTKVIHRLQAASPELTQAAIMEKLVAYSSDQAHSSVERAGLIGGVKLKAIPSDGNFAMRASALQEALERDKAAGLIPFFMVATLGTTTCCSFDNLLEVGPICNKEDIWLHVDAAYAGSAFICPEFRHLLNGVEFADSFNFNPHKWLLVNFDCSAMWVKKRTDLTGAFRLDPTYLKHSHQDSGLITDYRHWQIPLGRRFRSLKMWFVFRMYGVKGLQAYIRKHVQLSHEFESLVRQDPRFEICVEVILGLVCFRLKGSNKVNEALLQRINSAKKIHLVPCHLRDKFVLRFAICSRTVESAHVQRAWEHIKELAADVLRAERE
Briefly: Inhibition of DOPA decarboxylase (method of Davis and Awapara). It is filed as biochemical. The following applies: for inhibiting action against DOPA decarboxylase: in words; for IC50: read-out: concentration for 50% inhibition of DOPA decarboxylase (converted). From the text: It has been reported heretofore that an inhibitor against COMT delays the metabolism or rate of destruction of adrenaline, noradrenaline, etc. in the human body and, therefore, serves to prolong and promote their blood pressure elevating action. These inhibitors may also be used as curative or palliative medicines for diseases such as depression which is considered to be caused when catechol amines present in the human body are reduced in quantity. There has been much argument about etiological causes of schizophrenia. One hypothesis says that the schizophrenia is caused by the production of abnormally methylated bioamines (methylated catechol amines and serotonin) within the brain. Especially, hallucination of schizophrenia is said to be caused by abnormally methylated catechol amines (Ref. "Amines and Schizophrenia" by H. E. Himwich, S. S. Kety and J. R. Smythies, 1967, Pergamon Press, Oxford). The inhibitors of COMT may therefore be used as curative medicines for schizophrenia and for the associated hallucination. On the other hand, the anti-hemochlasis of isoflavones has been reported by Murata and Ikehata ("Agr. Biol. Chem." Vol. 32, No. 6, 1968, pp. 740-746) and the cholesterol deposition preventing action of isoflavones has been reported by G. W. Moersch, D. F. Morrow and W. A. Neuklis ("J. Med. Chem." 10(2), 1967, pp. 154-158). […] It will therefore be possible to use the compounds (I), (II) and (III) as curative medicines for diseases such as hypertension and arteriosclerosis and also as economizers in combination with DOPA for treating Parkinson's disease. […] This means that there is a possibility to use the compounds (I) and (II) as curative medicines for inflammation and allergy in man.

A further data set is described as follows: Solubility. It is filed as physicochemical. From the text: Now the extractive purification of the compounds (I), (II) and (III) will be described. […] These compounds are extracted from the culture filtrate under acidic conditions with butanol, butyl acetate, etc. or also from the fungus solid body (mycelium) with methanol, acetone, etc. The filtrate from the mycelial extract is concentrated by distillation under diminished pressure and the concentrated liquid, after having been adjusted to be acidic, is subjected to an extraction operation with butyl acetate or butanol. The thusly extracted liquid is mixed with the solution of butyl acetate or butanol separately extracted from the culture liquid, and then concentrated to dryness under diminished pressure.

A further data set relates to fungi. Briefly: Inhibiting action against growth of fungi. The settings on record: at 100 .nu./cc. It is filed as cell-based.

Each structure is given as a SMILES string.

Consider `COc1ccc(-c2coc3c(OC)c(O)cc(O)c3c2=O)cc1O` [Compound (II), 3',5,7-trihydroxy-4',8-dimethoxy-isoflavone], for which the “inhibiting action against the growth of bacteria” value (“inhibiting action … of bacteria” below) in the data set on bacteria is recorded as “no inhibiting action”. The “inhibiting action against tyrosine hydroxylase” value with tyrosine hydroxylase is reported as “no inhibiting action”. For the same compound, the “inhibiting action against dopamin-β-hydroxylase” value on dopamin-β-hydroxylase is “no inhibiting action”. Besides, the “blood pressure lowering action” value in data set [1] (3.1 mg./kg., after 1 hour) was 21.0%; in data set [1] (3.1 mg./kg., after 3 hours), 26.3%; in data set [1] (3.1 mg./kg., after 6 hours), 28.0%; in data set [1] (3.1 mg./kg., after 24 hours) it was 22.0%; in data set [1] (3.1 mg./kg., after 48 hours), 13.4%; in data set [1] (12.5 mg./kg., after 1 hour) it was 10.4%. Further, the “blood pressure lowering action” value in data set [1] (12.5 mg./kg., after 3 hours) worked out at 34.4%; in data set [1] (12.5 mg./kg., after 6 hours), 32.8%; in data set [1] (12.5 mg./kg., after 24 hours), 18.0%; in data set [1] (12.5 mg./kg., after 48 hours), 18.0%; in data set [1] (50 mg./kg., after 1 hour), 22.3%; in data set [1] (50 mg./kg., after 3 hours), 35.9%. In addition, the “blood pressure lowering action” value in data set [1] (50 mg./kg., after 6 hours) was 35.3%; in data set [1] (50 mg./kg., after 24 hours) it was 23.9%; in data set [1] (50 mg./kg., after 48 hours) it was 16.3%. Further, in data set [1], the blood pressure lowering entry was “lowered the blood pressure”. In the data set with rats, the toxicity result is “no toxicity”. In addition, the “inhibiting action against DOPA decarboxylase” value on DOPA decarboxylase is reported as “powerful inhibiting action”. Further, the IC50 on DOPA decarboxylase was 15.1 µM. Also, the “solubility in alkaline water, methanol, ethanol and acetone” value (“solubility in alkaline water, methanol” for short) in the data set “Solubility” was “soluble”. Besides, the “solubility in butanol, ethyl acetate and butyl acetate” value (“solubility in butanol” for short) in “Solubility” is on record as “slightly soluble”. Further, the “inhibiting action against the growth of fungi” value (“inhibiting action … of fungi” below) in the data set with fungi is “no inhibiting action”.
As to `COc1ccc(-c2coc3c(OC)c(O)c(OC)cc3c2=O)cc1O` [Compound (III), 3',7-dihydroxy-4',6,8-trimethoxy-isoflavone], the “inhibiting action … of bacteria” value in the data set on bacteria is on record as “no inhibiting action”. Moreover, the “inhibiting action against tyrosine hydroxylase” value with tyrosine hydroxylase is reported as “no inhibiting action”. At dopamin-β-hydroxylase, the “inhibiting action against dopamin-β-hydroxylase” value is recorded as “no inhibiting action”. Moreover, the “blood pressure lowering action” value in data set [1] (50 mg./kg., after 1 hour) turned out to be 11.9%; in data set [1] (50 mg./kg., after 3 hours), 13.0%; in data set [1] (50 mg./kg., after 6 hours) it was 17.3%; in data set [1] (50 mg./kg., after 24 hours), 7.0%; in data set [1] (50 mg./kg., after 48 hours), 3.0%. Besides, in data set [1], the blood pressure lowering entry was “lowered the blood pressure”. The toxicity entry in the data set with rats was “no toxicity”. For the same compound, the “inhibition of DOPA decarboxylase” value at DOPA decarboxylase (at a concentration as high as 100 .nu./cc) is listed as “no inhibition”. Besides, the “inhibiting action against DOPA decarboxylase” value at DOPA decarboxylase is given as “no inhibiting action”. Also, in the data set “Solubility”, the “solubility in alkaline water, methanol” value is recorded as “soluble”. The “solubility in butanol” value in the data set “Solubility” is given as “slightly soluble”. In addition, in the data set on fungi, the “inhibiting action … of fungi” value is recorded as “no inhibiting action”.
Regarding `COc1ccc(-c2coc3cc(O)c(OC)c(O)c3c2=O)cc1O` [Compound (I), 3',5,7-trihydroxy-4',6-dimethoxy-isoflavone], the “inhibiting action … of bacteria” value in the data set with bacteria was “no inhibiting action”. For the same compound, the “inhibiting action against tyrosine hydroxylase” value with tyrosine hydroxylase is reported as “no inhibiting action”. For the same compound, the “inhibiting action against dopamin-β-hydroxylase” value against dopamin-β-hydroxylase is recorded as “no inhibiting action”. The “blood pressure lowering action” value amounted to 13.6% in data set [1] (12.5 mg./kg., after 1 hour); 10.7% in data set [1] (12.5 mg./kg., after 3 hours); 15.8% in data set [1] (12.5 mg./kg., after 6 hours); 7.8% in data set [1] (12.5 mg./kg., after 24 hours); 20.8% in data set [1] (50 mg./kg., after 1 hour); 16.4% in data set [1] (50 mg./kg., after 3 hours). The “blood pressure lowering action” value in data set [1] (50 mg./kg., after 6 hours) came to 35.0%; in data set [1] (50 mg./kg., after 24 hours), 3.8%. For the same compound, in data set [1], the blood pressure lowering entry is given as “lowered the blood pressure”. The toxicity result in the data set on rats is given as “no toxicity”. Also, the “inhibiting action against DOPA decarboxylase” value on DOPA decarboxylase is listed as “powerful inhibiting action”. Besides, on DOPA decarboxylase, the IC50 is 37.8 µM. For the same compound, in the data set “Solubility”, the “solubility in alkaline water, methanol” value is “soluble”. In addition, in the data set “Solubility”, the “solubility in butanol” value is “slightly soluble”. Moreover, the “inhibiting action … of fungi” value with fungi was “no inhibiting action”.
